Patent EP1094724B1, “USE OF A PHENOL OXIDISING ENZYME IN THE TREATMENT OF TOBACCO” (priority 1998, dated 2000)

What was measured:
[1] = target: T1, Trametes villosa laccase (TvL) (Trametes villosa, UniProt Q99044); assay: Laccase TvL treatment of tobacco extract, HPLC analysis of phenolic compounds (peak area); type: biochemical; settings: for % Remaining (peak area) after various treatment times: intensive, submerse aeration; for % Remaining (peak area) after 75 minutes / % Remaining (peak area) after 240 minutes: 1.6 µg/ml TvL, ambient temperature (approximately 20°C); for % Remaining (peak area) after 75 minutes / % Remaining (peak area) after 240 minutes / reduction in the area of the peaks (HPLC) following enzyme treatment: surface aeration; for reduction in the area of the peaks (HPLC) following enzyme treatment: tobacco extract, approximately 1.6 µg/ml TvL, pH 5.5 and 55°C
T1 construct: purchased Novo Nordisk A/S
T1 sequence (Q99044 22-520): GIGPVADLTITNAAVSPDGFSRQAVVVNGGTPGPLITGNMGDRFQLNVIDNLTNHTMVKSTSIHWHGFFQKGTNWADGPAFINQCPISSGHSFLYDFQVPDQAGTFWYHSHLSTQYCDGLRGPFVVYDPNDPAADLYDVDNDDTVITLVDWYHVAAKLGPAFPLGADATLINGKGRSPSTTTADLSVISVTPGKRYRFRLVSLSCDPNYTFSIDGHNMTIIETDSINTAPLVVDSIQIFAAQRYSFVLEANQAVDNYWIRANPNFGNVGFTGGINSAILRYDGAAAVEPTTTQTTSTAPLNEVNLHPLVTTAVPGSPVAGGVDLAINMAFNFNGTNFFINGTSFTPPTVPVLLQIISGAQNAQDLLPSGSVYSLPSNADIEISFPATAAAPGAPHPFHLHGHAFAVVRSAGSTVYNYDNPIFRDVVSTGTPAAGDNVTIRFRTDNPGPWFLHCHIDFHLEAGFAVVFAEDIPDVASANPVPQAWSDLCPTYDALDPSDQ
Method: (§1) The content of phenolic compounds is analysed by HPLC according to the procedure described below: • Liquid chromatographic system: E.g. Shimadzu SCL-6B System Controller, and two LC-6A Liquid Chromatograph (pumps) or Waters model 600 E • Injector: Shimadzu SIL 6B Autoinjector or Waters 715 Ultra Wisp. UV detector: Shimadzu SPD-6A Photodiode Array UV-VIS detector or Waters Model 481 • Software: CLASS LC10 / CLASS-MXA or Maxima 820 • Column: Supelcosil™ LC-18 25 cm x 4.6 mm (Supelco, #5-8298) or µ Bondapack C198 stainless steel column, 30 cm x 4 mm i.d., 10 µm particle size. • Guard column: none or Guard-Pak from Waters packed with the same material. • Temperature: Ambient • Mobile phase flow: 1.3 ml/min • Injection volume: 20µl • Wavelength: 350 nm • Eluent: Binary gradient (linear) mixture of A: KH2PO4 (28.4 g in 2000 ml de-mineralised water) and B: methanol (please see table 1 and figure 1). The eluent is filtered through a 0.45 µm filter and degassed before use.
(§2) Prior to HPLC analysis, the samples were filtered through a 0.45 µm filter or smaller, e.g. a sterile Sartorius Minisart 0.45 µm filter (#16555) or a Millipore Millex-GS 0.22 µm (#SBGS 0 25 SB) to remove the haze/precipitate normally formed during enzyme treatment. Normally, no dilution of the extract/sample was made before HPLC analysis.
(§3) For qualitative and semi-quantitative measurements, each of the standards was dissolved in 96% ethanol, and then mixed in a ratio and at a concentration which was within the range in the tobacco extract. For semi-quantification of the phenolic compounds in the tobacco extract, and as a measure of development in concentration of the various compounds contained in the extract, decrease in peak area relative to the peak area before addition of enzyme was used. As a measure of overall efficiency of the process, degree of reduction in total peak area of all peaks (not only the major ones) in the HPLC chromatogram with retention time Rt>3 min was used (named: "All peaks").
(§4) Unless otherwise indicated, the tobacco was extracted at a laboratory scale with water according to the following procedure: 1000 ml demineralised water is heated to 45°C. 30 g tobacco (approx. 25 g d.m.) is added and the mixture stirred by a magnetic bar and occasionally with a stick. After 15 minutes the tobacco residue is separated from the tobacco extract by vacuum filtration (Whatman glass micro fibre GF/F 11 cm). The filtered extract is then vacuum filtered at least once more or until it is completely clear. Yield was around 900 ml tobacco extract. […] No buffer was thus included in any of the trials. D.m. content of the extract was approximately 2.1%.
(§5) Tobacco extract (typically 50-100 ml) was poured into a glass beaker and a magnetic bar was added. No pH adjustments were made, and no buffer was added. The tobacco extract was heated to and controlled at 55°C during the entire enzyme treatment by means of a heating plate and a thermostat. Intensive submerse aeration was applied by blowing atmospheric air into the extract by means of a metal sinter (metal suction filter normally used for HPLC). The enzyme in question (TvL or PpL) was added to the desired concentration. Shortly after addition of laccase, the colour of the tobacco extract turned dark brown to black, and with time the liquor became turbid and a precipitate formed. The liquor was sampled with intervals for HPLC analysis.
Enzyme treatment: Surface aeration was used. TvL enzyme was added to the tobacco extract to a concentration of approximately 1.6 µg/ml. […] HPLC chromatograms of the tobacco extract before, during, and after enzyme treatment as well as chromatograms of the mixture of HPLC standards are shown in figure 6, 7, ,8, and 9.
Enzyme treatment: pH of the extract was adjusted with H2SO4 or NaOH to pH 4, pH 5, pH 6, or pH 7. The extract was kept at ambient temperature (approximately 20°C) during the entire enzyme treatment. Surface aeration was used. […]

[2] = system: Myceliopthora thermophila laccase (MtL); assay: Laccase MtL treatment of tobacco extract, HPLC analysis of phenolic compounds (peak area); type: biochemical; settings: for Remaining content (% remaining) (peak area relative to the content in the extract): before drying
Method: as §1, §2, §3, §4, §5
It is obvious, that MtL can also be used to remove the phenolic compounds. It is evident, that using a dosage of MtL of approximately 0.63 µg/ml, longer processing time is needed compared to using a dosage of 6.3 µg/ml to obtain the same degree of reduction of the phenolic compounds, and that almost complete removal can be obtained with a dosage of approximately 0.63 µg/ml.
Enzyme treatment: MtL enzyme was added at various concentrations in the range 2.5 µg/ml - 6.3 µg/ml. A fixed processing time of 20 minutes was used. […]

[3] = 40 Min, approximately 1.6 µg/ml TvL at 55°C and pH 5.4
[4] = 40 Min, approximately 7.8µg/ml TvL at 55°C and pH 5.4
[5] = 80 Min, approximately 1.6 µg/ml TvL at 55°C and pH 5.4
[6] = 120 Min, approximately 1.6 µg/ml TvL at 55°C and pH 5.4

Structure (SMILES): O=C(C=Cc1ccc(O)c(O)c1)OC1CC(O)(C(=O)O)CC(O)C1O (stereo not drawn) [CA, 3-[[3-(3,4-Dihydroxyphenyl)-1-oxo-2-propenyl]oxy]1,4,5-trihydroxycyclohexanecarboxylic acid]
- % Remaining (peak area) after various treatment times [1, 3]: 23%
- % Remaining (peak area) after various treatment times [1, 4]: 0%
- % Remaining (peak area) after various treatment times [1, 5]: 0%
- % Remaining (peak area) after various treatment times [1, 6]: 0%
- % Remaining (peak area) after 75 minutes ([1]; pH 4): 5%
- % Remaining (peak area) after 240 minutes ([1]; pH 4): 0%
- % Remaining (peak area) after 75 minutes ([1]; pH 5): 11%
- % Remaining (peak area) after 240 minutes ([1]; pH 5): 0%
- % Remaining (peak area) after 75 minutes ([1]; pH 6): 22%
- % Remaining (peak area) after 240 minutes ([1]; pH 6): 0%
- % Remaining (peak area) after 75 minutes ([1]; pH 7): 94%
- % Remaining (peak area) after 240 minutes ([1]; pH 7): 85%
- reduction in the area of the peaks (HPLC) following enzyme treatment [1]: significant reduction

Structure (SMILES): COc1cc2ccc(=O)oc2cc1O [S, 7-Hydroxy-6-methoxy-2H-1-benzopyran-2-one]
- Residual amount (% remaining) (peak area) ([2]; 0 % pO2, 3.8 µg/ml MtL for 20 minutes at pH 5.4 and 55°C): 100%
- Residual amount (% remaining) (peak area) ([2]; 2.5 µg MtL /ml, 20 minutes at pH 5.4 and 55°C, intensive submerse aeration): 97%
- Residual amount (% remaining) (peak area) ([2]; 3.8 µg MtL /ml, 20 minutes at pH 5.4 and 55°C, intensive submerse aeration): 69%
- Residual amount (% remaining) (peak area) ([2]; 6.3 µg MtL /ml, 20 minutes at pH 5.4 and 55°C, intensive submerse aeration): 52%
- Residual amount (% remaining) (peak area) ([2]; 30 % pO2, 3.8 µg/ml MtL for 20 minutes at pH 5.4 and 55°C): 75%
- Residual amount (% remaining) (peak area) ([2]; 50 % pO2, 3.8 µg/ml MtL for 20 minutes at pH 5.4 and 55°C): 59%
- Residual amount (% remaining) (peak area) ([2]; 90 % pO2, 3.8 µg/ml MtL for 20 minutes at pH 5.4 and 55°C): 45%
- % Remaining (peak area) after various treatment times ([2]; 10 min, approx. 6.3 µg/ml MtL at pH 5.4 and 55°C, intensive submerse aeration): 78%
- % Remaining (peak area) after various treatment times ([2]; 20 min, approx. 6.3 µg/ml MtL at pH 5.4 and 55°C, intensive submerse aeration): 52%
- % Remaining (peak area) after various treatment times ([2]; 67 min, approx. 0.63 µg/ml MtL at pH 5.4 and 55°C, intensive submerse aeration): 90%
- % Remaining (peak area) after various treatment times ([2]; 150 min, approx. 0.63 µg/ml MtL at pH 5.4 and 55°C, intensive submerse aeration): 76%
- Remaining content (% remaining) (peak area relative to the content in the extract) ([2]; Sample 4 enzyme treated extract after separation from precipitate, approximately 7.5 µg/ml MtL, 30 minutes, 53-56°C, pH 5.5): 47%
- Remaining content (% remaining) (peak area relative to the content in the extract) ([2]; Sample 6 enzyme and bentonite treated extract separated from precipitate and bentonite, approximately 7.5 µg/ml MtL 30 minutes, then bentonite 15 minutes at 50-55°C): 44%
- % Remaining (peak area) after various treatment times [1, 3]: 82%
- % Remaining (peak area) after various treatment times [1, 4]: 3%
- % Remaining (peak area) after various treatment times [1, 5]: 30%
- % Remaining (peak area) after various treatment times [1, 6]: 12%
- % Remaining (peak area) after 75 minutes ([1]; pH 4): 89%
- % Remaining (peak area) after 240 minutes ([1]; pH 4): 58%
- % Remaining (peak area) after 75 minutes ([1]; pH 5): 94%
- % Remaining (peak area) after 240 minutes ([1]; pH 5): 12%
- % Remaining (peak area) after 75 minutes ([1]; pH 6): 96%
- % Remaining (peak area) after 240 minutes ([1]; pH 6): 6%
- % Remaining (peak area) after 75 minutes ([1]; pH 7): 100%
- % Remaining (peak area) after 240 minutes ([1]; pH 7): 112%
- reduction in the area of the peaks (HPLC) following enzyme treatment [1]: significant reduction
